The source of these data is ChEMBL document CHEMBL1138941, “BACE-1 inhibition by a series of psi[CH2NH] reduced amide isosteres” (Bioorg Med Chem Lett, 2006).

In general, pIC50 refers to the IC50 on a negative log10 scale, so that one unit is a factor of ten. Low readings indicate a large IC50, high ones a small IC50. Usually Papp stands for the rate of passage across a membrane or cell layer, normalised by area and donor concentration.

Series [1] deals with T1, Beta-secretase 1 (Homo sapiens, UniProt P56817). In words: Inhibition of soluble APPbeta N-terminal fragment production in HEK293T cells. The series is classed as functional, cell-based, HEK-293T.
The nature of series [2]: Apparent permeability of the compound. In kind it is ADME. The conditions noted are these: not told.
Series [3] addresses T1, Beta-secretase 1. In words: Inhibition of BACE1.

pIC50: −log10 of the molar value.

T1 sequence (P56817 whole entry, the tested form may be a part): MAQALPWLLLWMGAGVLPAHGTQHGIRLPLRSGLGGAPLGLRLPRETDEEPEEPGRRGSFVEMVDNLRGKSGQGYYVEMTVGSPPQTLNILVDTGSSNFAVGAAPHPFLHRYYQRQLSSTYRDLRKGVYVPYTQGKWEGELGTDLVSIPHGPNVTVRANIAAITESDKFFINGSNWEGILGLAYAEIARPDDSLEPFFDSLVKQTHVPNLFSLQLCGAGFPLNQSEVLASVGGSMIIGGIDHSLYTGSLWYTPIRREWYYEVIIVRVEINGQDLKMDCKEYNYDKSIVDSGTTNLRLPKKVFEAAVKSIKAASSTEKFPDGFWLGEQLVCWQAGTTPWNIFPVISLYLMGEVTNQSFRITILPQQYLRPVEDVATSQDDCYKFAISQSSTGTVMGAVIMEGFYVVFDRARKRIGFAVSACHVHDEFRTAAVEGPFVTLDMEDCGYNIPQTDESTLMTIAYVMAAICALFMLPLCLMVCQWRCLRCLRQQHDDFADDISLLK

`CC(C)CNC(=O)[C@H](C)NC[C@H](Cc1ccccc1)NC(=O)c1cc(C(=O)N[C@H](C)c2ccc(F)cc2)cc(N(C)S(C)(=O)=O)c1` had a pIC50 on Beta-secretase 1 [1] of 7.66. Besides, the Papp in series [2] came to 10 ×10⁻⁶ cm/s.

Take `C[C@@H](NC(=O)c1cc(C(=O)N[C@H](CN)Cc2ccccc2)cc(N(C)S(C)(=O)=O)c1)c1ccc(F)cc1`: at Beta-secretase 1 [3], the pIC50 is 5.23.

For the molecule `C[C@H](NC[C@H](Cc1ccccc1)NC(=O)c1cc(C(=O)N[C@H](C)c2ccc(F)cc2)cc(N(C)S(C)(=O)=O)c1)C(=O)NCc1ccccc1`, the results for the pIC50 on Beta-secretase 1 [3] and at Beta-secretase 1 [1] were 6.86 and 6.14, respectively. In the case of `C[C@@H](NC(=O)c1cc(C(=O)N[C@@H](Cc2ccccc2)[C@H](O)CNC2CC2)cc(N(C)S(C)(=O)=O)c1)c1ccc(F)cc1`, the Papp in series [2] was 0.6 ×10⁻⁶ cm/s. With `CC(C)CNC(=O)[C@H](CCO)NC[C@H](Cc1ccccc1)NC(=O)c1cc(C(=O)N[C@H](C)c2ccc(F)cc2)cc(N(C)S(C)(=O)=O)c1`, the pIC50 was 7.89 against Beta-secretase 1 [3] and 6.12 against Beta-secretase 1 [1]. As for `C[C@H](NC[C@H](Cc1ccccc1)NC(=O)c1cc(C(=O)N[C@H](C)c2ccc(F)cc2)cc(N(C)S(C)(=O)=O)c1)C(=O)NC1CC1`, the pIC50 on Beta-secretase 1 [3] was 7.62; against Beta-secretase 1 [1] it was 6.88.

As to `CC[C@H](NC[C@H](Cc1ccccc1)NC(=O)c1cc(C(=O)N[C@H](C)c2ccc(F)cc2)cc(N(C)S(C)(=O)=O)c1)C(=O)NCC(C)C`, the pIC50 on Beta-secretase 1 [3] was 8.15; against Beta-secretase 1 [1] it was 7.70. With `C[C@H](NC[C@H](Cc1ccccc1)NC(=O)c1cc(C(=O)N[C@H](C)c2ccc(F)cc2)cc(N(C)S(C)(=O)=O)c1)C(=O)N1CCC[C@H]1C(=O)O`, the pIC50 at Beta-secretase 1 [3] is 4.76; against Beta-secretase 1 [1], less than 4.70.

As for `CC(C)CNC(=O)[C@H](CCS(C)(=O)=O)NC[C@H](Cc1ccccc1)NC(=O)c1cc(C(=O)N[C@H](C)c2ccc(F)cc2)cc(N(C)S(C)(=O)=O)c1`, the results for the pIC50 at Beta-secretase 1 [3] and against Beta-secretase 1 [1] were 7.89 and 4.76, respectively.

Regarding `CCC[C@H](NC[C@H](Cc1ccccc1)NC(=O)c1cc(C(=O)N[C@H](C)c2ccc(F)cc2)cc(N(C)S(C)(=O)=O)c1)C(=O)NCC(C)C`, the pIC50 is 8.40 against Beta-secretase 1 [3] and 7.77 on Beta-secretase 1 [1]. Consider `CCNC(=O)[C@H](C)NC[C@H](Cc1ccccc1)NC(=O)c1cc(C(=O)N[C@H](C)c2ccc(F)cc2)cc(N(C)S(C)(=O)=O)c1`, for which the pIC50 was 7.28 against Beta-secretase 1 [3] and 6.62 against Beta-secretase 1 [1]. The like results for `CC(C)CNC(=O)CNC[C@H](Cc1ccccc1)NC(=O)c1cc(C(=O)N[C@H](C)c2ccc(F)cc2)cc(N(C)S(C)(=O)=O)c1` were, in that order, 6.93 and 5.43.

With `C[C@@H](NC(=O)c1cc(C(=O)N[C@H](CO)Cc2ccccc2)cc(N(C)S(C)(=O)=O)c1)c1ccc(F)cc1`, the pIC50 against Beta-secretase 1 [3] was 6.20. Turning to `CC(C)CNC(=O)[C@H](C)NC[C@H](Cc1ccccc1)NC(=O)c1cc(CCC2C[C@@H]2C)cc(N(C)S(C)(=O)=O)c1` (stereo partly specified), the pIC50 on Beta-secretase 1 [3] is 7.70; against Beta-secretase 1 [1] it was 7.64. Besides, in series [2], the Papp worked out at 24 ×10⁻⁶ cm/s.
